According to PMC5433008 (BMC Neuroscience, 2017):
Where a SMILES comes first, the peptide text is derived from it.

Columns and labels:
[1] = tested on: GluN1a–GluN2B; assay type: cell-based
[2] = tested on: recombinant NMDAr comprised of either GluN1a–GluN2A or GluN1a–GluN2B subunits; assay type: cell-based
[3] = tested on: GluN1a–GluN2A; assay type: cell-based
[4] = tested on: NMDA-evoked currents in cultured rat embryonic hippocampal neurons (NMDAr); settings: for IC50: pH 7.4

Compound	block of NMDA-evoked currents, GluN1a–GluN2B [1]	difference between control-NMDA and wash-NMDA (reversibility) [2]	off rate (from short-lived current increase on simultaneous removal of NMDA + peptide) [2]	reversibility, recombinant NMDAr versus neuronal NMDAr [2]	block of NMDA-evoked currents, GluN1a–GluN2A [3]	dose dependence of inhibition [4]	off rate (from transient current increase on simultaneous removal of NMDA + peptide) [4]	reversibility of block [4]	use-dependence of block [4]	IC50 [4]
CC[C@H](C)[C@H](NC(=O)[C@H](CC(C)C)NC(=O)[C@H](CC(=O)O)NC(=O)[C@H](CCC(N)=O)NC(=O)[C@H](CC(N)=O)NC(=O)[C@H](CC(=O)O)NC(=O)[C@H](CCC(N)=O)NC(=O)[C@H](CC(C)C)NC(=O)[C@H](CC(=O)O)NC(=O)[C@H](CC(=O)O)NC(=O)[C@H](CCC(=O)O)NC(=O)CN)C(=O)N[C@@H](CCCNC(=N)N)C(=O)N[C@@H](CC(=O)O)C(=O)N[C@@H](CCCCN)C(=O)N[C@@H](CO)C(=O)N[C@@H](CC(N)=O)C(=O)O [EAR16] (H-GEDDLQDNQDLIRDKSN-OH)	84%	No significant difference	fast enough that would allow binding of NMDA early on during washout	faster from the recombinant NMDAr than from NMDAr expressed in neuronal cells	50%	dose-dependent	fast enough that would allow binding of NMDA early on during washout	highly reversible	no clear use-dependence	241 µM
CC[C@H](C)[C@H](NC(=O)[C@H](CC(C)C)NC(=O)[C@H](CC(=O)O)NC(=O)[C@H](CCC(N)=O)NC(=O)[C@H](C)NC(=O)[C@H](CC(=O)O)NC(=O)[C@H](CCC(N)=O)NC(=O)[C@H](Cc1ccc(O)cc1)NC(=O)[C@H](CC(=O)O)NC(=O)[C@H](CC(=O)O)NC(=O)[C@H](CCC(=O)O)NC(=O)CN)C(=O)N[C@@H](CCCNC(=N)N)C(=O)N[C@@H](CC(=O)O)C(=O)N[C@@H](CCCCN)C(=O)N[C@@H](CO)C(=O)N[C@@H](CC(N)=O)C(=O)O [EAR18] (H-GEDDYQDAQDLIRDKSN-OH)	–	–	–	–	–	–	–	–	–	176 µM
